{"source": "patent US20080261911A1", "about": "“Uses of diphenyl/diphenylamine carboxylic acids” (priority 2006, published 2008)", "key": {"[1]": {"test_system": "VEGF-B/VEGFR1 signaling (MAPK1/2 phosphorylation)", "test": "VEGF-B activation of MAPK in L3.6pl cells", "format": "cell-based, human", "conditions": "50 μM pretreatment for 36 hr, VEGF-B 5 or 10 min"}, "[2]": {"test_system": "VEGF-B/VEGFR1 signaling (MAPK1/2 phosphorylation)", "test": "VEGF-B activation of MAPK in Panc-1 cells", "format": "cell-based", "conditions": "50 μM pretreatment for 36 hr, VEGF-B 5 or 10 min", "method": "Cells were pretreated with DMSO, 50 μM ampiroxicam, or 50 μM tolfenamic acid for 36 hr; VEGF-B (50 ng/ml) was added for 5 or 10 min, and whole cell lysates were obtained and analyzed by Western blot. Cell migration assay (FIG. 18C). […] Immunostaining of pancreatic tumors (FIG. 18D). Pancreatic tumors from athymic nude mice treated with solvent (control), gemcitabine (50 mg/kg), or tolfenamic acid (25 and 50 mg/kg) (Dick, 1996) were stained with VEGFR1 antibodies as described below and in a previous report (Dick, 1996).\nPanc-1 cells were pretreated with DMSO, 50 μM ampiroxicam, or 50 μM tolfenamic acid for 48 h, and then were treated with VEGF-B (50 ng/ml) for 5 and 10 min. MAPK phosphorylation in the various treatment groups was then determined by western immunoblot analysis as described above. For migration assays, Panc-1 cells were seeded in triplicate in six-well collagen IV coated plates and then treated with the selected non-steroidal anti-inflammatory drugs for 24 h before the scratch was made. […]\nPrevious studies have reported that activation of VEGFR1 by VEGF-B in pancreatic cancer cells results in enhanced phosphorylation of MAPK and increased cell migration and invasion. […] The importance of Sp protein in VEGFR1-dependent Panc-1 cell migration was determined using a cell migration assay on collagen IV-coated plates."}, "Panc-1 cells": {"test_system": "Panc-1 cells", "test": "Cell proliferation assay, Panc-1 cells", "format": "cell-based", "conditions": "for growth of Panc-1 pancreatic cancer cells: different concentrations, 6 days, cell counting", "method": "FIGS. 6A-6E show comparative effects of non-steroidal anti-inflammatory drugs on Panc-1 cell proliferation and Sp protein expression. Effects of tolfenamic acid (FIG. 6A), ampiroxicam (FIG. 6B), naproxen (FIG. 6C), and diclofenac sodium (FIG. 6D) on Panc-1 cell proliferation. Panc-1 cells were treated with different concentrations of non-steroidal anti-inflammatory drugs for 6 days, and the number of cells were determined on days 2, 4, and 6 by cell counting techniques. […] Panc-1 cells were treated with DMSO, 150 μM ampiroxicam, 150 μM naproxen, and 50 μM tolfenamic acid for 48 hr, and levels of Sp proteins and the cleaved poly (ADP-ribose) polymerase (PARP) protein were determined in whole cell lysates by Western blot analysis. […] Panc1, Panc28 and L3.6pl cells are seeded in DMEM/F12 media with 5% FBS and treated the next day with either vehicle (DMSO) or with the indicated compounds' concentrations. Cells are counted at the indicated times using a Z1™ COULTER COUNTER® cell counter. Each experiment is carried out in triplicate and results expressed as means ±SD for each determination."}, "[3]": {"test_system": "cleaved poly (ADP-ribose) polymerase (PARP) protein", "test": "Apoptosis: cleaved PARP in Panc-1 cells, Western blot", "format": "cell-based", "conditions": "48 hr", "protocol": "Cells are washed once with phosphate buffered saline PBS and collected by scraping in 200 μL of lysis buffer [50 mM HEPES, 0.5M sodium chloride, 1.5 mM magnesium chloride, 1 mM EGTA, 10% (v/v) glycerol, 1% Triton X-100, 5 μL/ml of Protease Inhibitor Cocktail (Sigma)]. The lysates from the cells are incubated on ice for 1 hr with intermittent vortexing followed by centrifugation at 40,000 g for 10 min at 4° C. Equal amounts of protein (60 μg) from each treatment group are diluted with loading buffer, boiled and loaded onto 10 and 12.5% SDS-polyacrylamide gel. […] Samples are electrophoresed, transferred to membranes, and proteins detected by incubation with polyclonal primary antibodies Sp1, Sp3, Sp4, HDAC, VEGF (a-20), c-Met, surviving, VEGF, cleaved PARP, and β-tubulin (H-235) followed by blotting with appropriate horseradish peroxidase-conjugated secondary antibody as previously described (Abdelrahim et al, 2004). After autoradiography, band intensities are determined by a scanning laser densitometer (Sharp Electronics Corporation, Mahwah, N.J.) using ZERO-D SCANALYTICS software (Scanalytics Corporation, Billerica, Mass.)."}, "VEGF": {"test_system": "VEGF", "test": "Immunostaining of VEGF in Panc-1 cells", "format": "cell-based", "conditions": "50 μM, 48 hr", "method": "Panc1 cells are seeded in LAB-TEK® chamber slides (Nalge Nunc International, Naperville, Ill.) at 100,000 cells/well in DME/F12 medium supplemented with 5% fetal bovine serum. Cells are treated with the selected non-steroidal anti-inflammatory drugs and after 48 hr, the media chamber is detached and the remaining glass slides washed in Dulbecco's phosphate buffered saline (PBS). The immunostaining for vascular endothelial growth factor (VEGF) is determined essentially as previously described (Abdelrahim et al, 2005). Briefly, the glass slides are fixed with cold (-20° C.) methanol for 10 min and washed in 0.3% PBS/Tween for 5 min (two times) before blocking with 5% goat serum in antibody dilution buffer (stock solution: 100 ml of PBS/Tween, Ig of bovine serum albumin, 45 ml of glycerol, pH 8.0) for 1 hr at 20° C. After removal of the blocking solution, VEGF rabbit polyclonal antibody (A-20) is added in antibody dilution buffer (1:200) and incubated for 12 hr at 4° C. Slides are washed for 10 min with 0.3% Tween in 0.02 M phosphate buffered saline (three times) and incubated with fluorescein isothiocyanate-conjugated (FITC) goat anti-rabbit antibodies (1:1000 dilution) for 2 hr at 20° C. Slides are then washed for 10 min in 0.3% PBS-Tween (four times). […]"}, "Egr-1 protein": {"test_system": "Egr-1 protein", "test": "Egr-1 protein expression in L3.6pl cells, Western blot", "format": "cell-based, human", "conditions": "50 μM, 48 h", "method": "Cells are washed once with phosphate buffered saline PBS and collected by scraping in 200 μL of lysis buffer [50 mM HEPES, 0.5M sodium chloride, 1.5 mM magnesium chloride, 1 mM EGTA, 10% (v/v) glycerol, 1% Triton X-100, 5 μL/ml of Protease Inhibitor Cocktail (Sigma)]. The lysates from the cells are incubated on ice for 1 hr with intermittent vortexing followed by centrifugation at 40,000 g for 10 min at 4° C. Equal amounts of protein (60 μg) from each treatment group are diluted with loading buffer, boiled and loaded onto 10 and 12.5% SDS-polyacrylamide gel. For vascular endothelial growth factor immunoblots, 100 μg of protein are used. Samples are electrophoresed, transferred to membranes, and proteins detected by incubation with polyclonal primary antibodies Sp1, Sp3, Sp4, HDAC, VEGF (a-20), c-Met, surviving, VEGF, cleaved PARP, and β-tubulin (H-235) followed by blotting with appropriate horseradish peroxidase-conjugated secondary antibody as previously described (Abdelrahim et al, 2004). After autoradiography, band intensities are determined by a scanning laser densitometer (Sharp Electronics Corporation, Mahwah, N.J.) using ZERO-D SCANALYTICS software (Scanalytics Corporation, Billerica, Mass.).\nThe proximal region of the VEGFR1 promoter contains GC-rich and Egr-1 sites. […]"}}}
{"smiles": "Cc1c(Cl)cccc1Nc1ccccc1C(=O)O", "note": "[tolfenamic acid]", "values": [{"measurement": "VEGF-B-induced phosphorylation of MAPK1/2", "setting": "[1]", "value": "decreased phospho-MARK1/2"}, {"measurement": "VEGF-B-induced phosphorylation of MAPK1/2", "setting": "[2]", "value": "decreased phospho-MARK1/2"}, {"measurement": "relative potency in Panc-1 growth inhibition", "setting": "Panc-1 cells; compared with ampiroxicam and naproxen", "value": "exhibited higher potencies"}, {"measurement": "growth of Panc-1 pancreatic cancer cells", "setting": "Panc-1 cells", "value": "decreased growth of Panc-1 pancreatic cancer cells"}, {"measurement": "poly (ADP-ribose) polymerase cleavage", "setting": "[3]; 50 μM", "value": "induced protein degradation and poly (ADP-ribose) polymerase cleavage"}, {"measurement": "immunostaining of secreted vascular endothelial growth factor protein", "setting": "VEGF", "value": "almost non-detectable"}, {"measurement": "Egr-1 protein", "setting": "Egr-1 protein", "value": "unchanged in all treatment groups"}]}
{"smiles": "CCOC(=O)OC(C)OC1=C(C(=O)Nc2ccccn2)N(C)S(=O)(=O)c2ccccc21", "note": "(stereo not shown) [ampiroxicam]", "values": [{"measurement": "VEGF-B-induced phosphorylation of MAPK1/2", "setting": "[1]", "value": "increased phosphorylation of MAPK1/2"}, {"measurement": "VEGF-B-induced phosphorylation of MAPK1/2", "setting": "[2]", "value": "increased phosphorylation of MAPK1/2"}, {"measurement": "growth of Panc-1 pancreatic cancer cells", "setting": "Panc-1 cells", "value": "decreased growth of Panc-1 pancreatic cancer cells"}, {"measurement": "poly (ADP-ribose) polymerase cleavage", "setting": "[3]; 150 μM", "value": "only tolfenamic acid induced protein degradation and poly (ADP-ribose) polymerase cleavage"}, {"measurement": "immunostaining of secreted vascular endothelial growth factor protein", "setting": "VEGF", "value": "significant lawn of extracellular vascular endothelial growth factor staining"}, {"measurement": "Egr-1 protein", "setting": "Egr-1 protein", "value": "unchanged in all treatment groups"}]}
